{
  "source": "patent US8940304B2",
  "about": "“Monoclonal antibodies against the PBP2-A protein and homologous sequences for the treatment of infections by and immunodiagnostics of bacteria of the firmicutes phylum” (priority 2009, dated 2015)",
  "key": {"CEB-MRSA": {"system": "CEB-MRSA", "experiment": "Comparative in vivo protection antibody versus vancomycin, renal quantification, Assay I", "parameters": "species or system Staphylococcus aureus", "description": "Four groups of female 8-week Balb/C mice (4 animals per group) received an infective dose of 6.0×10^7 bacteria (CEB-MRSA) by intraperitoneal route. The animals received doses of purified monoclonal antibody (MAB), vancomycin, MAB+vancomycin, and negative control, according to the groups below:\ngroup 1: MAB (400 micrograms) (first day)\ngroup 2: vancomycin (150 micrograms, intramuscular route, 12/12 hours)\ngroup 3: vancomycin+MAB (350 micrograms) (1 day after infection)\nThe first doses of antibody and vancomycin were administered 4 hours after the administration of the infective dose. The animals were subjected to euthanasia in the fourth day, and the kidneys were aseptically removed and subjected to renal qualification, according to what was previously described.\nIn this study, the animals were infected and the administration of the antimicrobial or monoclonal antibodies was started just after four hours of infection. The study was conducted with three distinct groups: one treated with vancomycin, other treated with monoclonal antibodies, and a third one with simultaneous administration of antimicrobial+antibodies. Vancomycin doses were adjusted and administered in a way similar to the cases of infections in humans (500 mg every 12 hours)."}, "CEB MRSA": {"system": "CEB MRSA", "experiment": "Comparative in vivo protection antibody versus vancomycin, renal quantification, Assay II", "parameters": "species or system Staphylococcus aureus", "settings": "antibody 500 μg", "experimental": "This assay was performed in the same way as the previous one, but, with a lower infective dose (7.0×10^6 bacteria), with the group 1 being treated with 500 micrograms of purified monoclonal antibody; group 2 being treated with vancomycin (150 micrograms, intramuscular route, 12/12 hours; 5 doses); group 3 being treated with vancomycin+500 micrograms of monoclonal antibody; and group 4 being control (non-treated animals)."}},
  "data": [
    {"smiles": "CN[C@H](CC(C)C)C(=O)N[C@H]1C(=O)N[C@@H](CC(N)=O)C(=O)N[C@H]2C(=O)N[C@H]3C(=O)N[C@H](C(=O)N[C@H](C(=O)O)c4cc(O)cc(O)c4-c4cc3ccc4O)[C@H](O)c3ccc(c(Cl)c3)Oc3cc2cc(c3O[C@@H]2O[C@H](CO)[C@@H](O)[C@H](O)[C@H]2O[C@H]2C[C@](C)(N)[C@H](O)[C@H](C)O2)Oc2ccc(cc2Cl)[C@H]1O", "note": "[vancomycin]", "values": [
      {"measurement": "reduction in the quantity of bacteria present in the kidneys versus non-treated animals", "setting": "CEB-MRSA; Assay I: 6.0×10^7 bacteria CEB MRSA IP, treatment from 4 hours after infection, three days after infection, vancomycin every 12 hours (5 doses)", "value": "around 15 times"},
      {"measurement": "bacteria recovered from kidneys, mean of group", "setting": "CEB-MRSA; Assay I: 6.0×10^7 bacteria CEB MRSA, antibody 400 μg, vancomycin 5 doses, antibody (300 μg)+vancomycin", "value": "172,250 bacteria"},
      {"measurement": "bacteria recovered from kidneys, mean of group", "setting": "CEB MRSA; Assay II: 7.0×10^6 bacteria CEB MRSA, vancomycin every 12 hours (5 doses), antibody (500 μg)+vancomycin", "value": 720, "unit": "bacteria"},
      {"measurement": "reduction of bacteria in kidneys versus non-treated animals", "setting": "CEB MRSA; Assay II: lower infective dose 7.0×10^6 bacteria CEB MRSA, vancomycin 5 doses, combination", "value": 35, "unit": "times"}
    ]}
  ]
}
